In ChEMBL document CHEMBL1124237, “Linear free energy relationship studies of enzyme active site binding: thymidylate synthase” (J Med Chem, 1988) one finds Ki data, which are given here for 13 compounds.

pKi: −log10 of the molar value.

Assay [1] has as its target Thymidylate synthase (Mus musculus, UniProt P07607). Description: Inhibitory effect on murine leukemia (L1210) thymidylate synthase.
The target of assay [2] is T1, Thymidylate synthase (Lactobacillus casei, UniProt P00469).
T1 sequence (P00469 whole entry): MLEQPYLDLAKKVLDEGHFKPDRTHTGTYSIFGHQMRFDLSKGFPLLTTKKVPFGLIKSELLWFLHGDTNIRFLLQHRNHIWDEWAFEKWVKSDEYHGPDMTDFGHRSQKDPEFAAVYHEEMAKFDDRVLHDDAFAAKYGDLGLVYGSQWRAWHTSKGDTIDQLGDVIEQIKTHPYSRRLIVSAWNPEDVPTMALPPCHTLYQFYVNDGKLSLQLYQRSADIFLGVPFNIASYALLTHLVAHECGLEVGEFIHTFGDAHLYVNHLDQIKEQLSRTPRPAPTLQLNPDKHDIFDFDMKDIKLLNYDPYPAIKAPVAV
The experiment in a line: Inhibitory effect on Lactobacillus casei thymidylate synthase. Details: species or system Lacticaseibacillus casei.

The target of assay [3] is Thymidylate synthase (Homo sapiens, UniProt P04818). Description: Inhibitory effect on human lymphoblast (Molt/4F) thymidylate synthase.
Thymidylate synthase (Homo sapiens, UniProt P04818), sequence (P04818 whole entry): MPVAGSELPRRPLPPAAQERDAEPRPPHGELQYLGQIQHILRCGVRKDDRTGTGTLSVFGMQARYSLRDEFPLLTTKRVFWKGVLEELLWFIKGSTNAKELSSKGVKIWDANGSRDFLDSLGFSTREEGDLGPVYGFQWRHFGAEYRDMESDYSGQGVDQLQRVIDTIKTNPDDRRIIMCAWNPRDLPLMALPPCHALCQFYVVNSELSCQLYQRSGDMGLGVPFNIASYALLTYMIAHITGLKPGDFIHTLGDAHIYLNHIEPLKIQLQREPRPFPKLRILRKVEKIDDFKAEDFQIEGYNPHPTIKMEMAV

Thymidylate synthase (Mus musculus, UniProt P07607), sequence (P07607 whole entry): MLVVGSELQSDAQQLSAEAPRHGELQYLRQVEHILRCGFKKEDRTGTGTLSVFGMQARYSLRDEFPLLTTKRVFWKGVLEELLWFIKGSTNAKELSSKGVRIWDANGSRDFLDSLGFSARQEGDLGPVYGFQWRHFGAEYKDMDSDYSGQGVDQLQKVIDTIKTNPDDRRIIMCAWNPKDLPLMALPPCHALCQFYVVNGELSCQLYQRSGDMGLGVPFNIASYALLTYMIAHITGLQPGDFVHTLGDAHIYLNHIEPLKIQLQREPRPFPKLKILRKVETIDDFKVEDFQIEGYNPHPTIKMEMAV

With `O=c1[nH]c(=O)n([C@H]2C[C@H](O)[C@@H](COP(=O)(O)O)O2)cc1-c1ccc([N+](=O)[O-])cc1`, the pKi (commonly the Ki on a negative log10 scale, so that one unit is a factor of ten) at Thymidylate synthase [1] was 4.32; at Thymidylate synthase [2] it was 5.19.
The like results for `O=c1[nH]c(=O)n([C@H]2C[C@H](O)[C@@H](COP(=O)(O)O)O2)cc1-c1ccccc1` were, in that order, 4.91 and 6.02.
As to `Cc1ccc(-c2cn([C@H]3C[C@H](O)[C@@H](COP(=O)(O)O)O3)c(=O)[nH]c2=O)cc1`, the pKi at Thymidylate synthase [1] was 5.08.
On to `COc1ccc(-c2cn([C@H]3C[C@H](O)[C@@H](COP(=O)(O)O)O3)c(=O)[nH]c2=O)cc1`, for which the pKi at Thymidylate synthase [1] was 4.48; at Thymidylate synthase [2] it was 5.92.
The like results for `Nc1ccc(-c2cn([C@H]3C[C@H](O)[C@@H](COP(=O)(O)O)O3)c(=O)[nH]c2=O)cc1` were, in that order, 4.95 and 5.95.
Consider `O=c1[nH]c(=O)n([C@H]2C[C@H](O)[C@@H](COP(=O)(O)O)O2)cc1-c1ccc(OCc2ccccc2)cc1`, for which, at Thymidylate synthase [1], the pKi is 4.95.
As for `O=c1[nH]c(=O)n([C@H]2C[C@H](O)[C@@H](COP(=O)(O)O)O2)cc1-c1ccc(O)cc1`, the pKi was 3.75 on Thymidylate synthase [1], 5.12 on Thymidylate synthase [2] and 3.87 at Thymidylate synthase [3].
Turning to `CN(C)c1ccc(-c2cn([C@H]3C[C@H](O)[C@@H](COP(=O)(O)O)O3)c(=O)[nH]c2=O)cc1`, the pKi on Thymidylate synthase [1] was 4.32; at Thymidylate synthase [2], 5.85.
Consider `N#Cc1ccc(-c2cn([C@H]3C[C@H](O)[C@@H](COP(=O)(O)O)O3)c(=O)[nH]c2=O)cc1`, for which the pKi was 4.01 at Thymidylate synthase [1], 5.06 on Thymidylate synthase [2] and 3.94 on Thymidylate synthase [3].
For the compound `O=c1[nH]c(=O)n([C@H]2C[C@H](O)[C@@H](COP(=O)(O)O)O2)cc1-c1ccc(C(F)(F)F)cc1`, the pKi on Thymidylate synthase [1] was 4.03; on Thymidylate synthase [2] it was 5.31.
Turning to `NC(=O)c1ccc(-c2cn([C@H]3C[C@H](O)[C@@H](COP(=O)(O)O)O3)c(=O)[nH]c2=O)cc1`, the pKi on Thymidylate synthase [1] is 3.95; on Thymidylate synthase [2] it was 5.25; at Thymidylate synthase [3], 3.92.
Consider `O=c1[nH]c(=O)n([C@H]2C[C@H](O)[C@@H](COP(=O)(O)O)O2)cc1-c1ccc(Br)cc1`, for which the pKi was 4.53 on Thymidylate synthase [1] and 5.74 at Thymidylate synthase [2].
With `COC(=O)c1ccc(-c2cn([C@H]3C[C@H](O)[C@@H](COP(=O)(O)O)O3)c(=O)[nH]c2=O)cc1`, the pKi at Thymidylate synthase [1] was 4.34; on Thymidylate synthase [2], 5.40; at Thymidylate synthase [3], 3.99.
